{"source": "patent US7531555B2", "about": "“Compositions and methods for selective inhibition of nicotine acetylcholine receptors” (University of Florida Research Foundation, Inc., priority 2003, dated 2009)", "key": {"Rat α6/3β2β3": {"molecular_target": "T1, Rat α6/3β2β3 (Rattus norvegicus, UniProt P04757+P12390+P12391+P43143)", "T1 construct": "evaluation of the effects of the α6 extracellular domain; remainder of rat α3 subunit (transmembrane and intracellular part); expressed in transfected cells; host or cells: Xenopus laevis oocytes injected with subunit cRNAs; α6/3 clone from Michael McIntosh (University of Utah), corrected in house by QuickChange", "T1 sequence (P43143+P04757 fused with the stated changes)": "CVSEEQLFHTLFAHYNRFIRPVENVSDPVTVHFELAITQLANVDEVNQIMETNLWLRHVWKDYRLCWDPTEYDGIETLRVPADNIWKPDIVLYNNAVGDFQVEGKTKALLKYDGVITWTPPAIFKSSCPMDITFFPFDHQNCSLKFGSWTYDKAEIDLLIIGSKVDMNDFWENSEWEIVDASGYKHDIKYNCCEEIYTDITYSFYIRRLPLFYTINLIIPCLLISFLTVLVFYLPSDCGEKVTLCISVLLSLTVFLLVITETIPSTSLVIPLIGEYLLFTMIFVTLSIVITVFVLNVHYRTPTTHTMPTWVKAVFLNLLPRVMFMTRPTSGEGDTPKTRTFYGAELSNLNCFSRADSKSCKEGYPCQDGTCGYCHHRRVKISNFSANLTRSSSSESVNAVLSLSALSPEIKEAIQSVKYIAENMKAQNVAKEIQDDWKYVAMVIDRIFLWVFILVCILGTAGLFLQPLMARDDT", "T1 sequence (P12390 25-500)": "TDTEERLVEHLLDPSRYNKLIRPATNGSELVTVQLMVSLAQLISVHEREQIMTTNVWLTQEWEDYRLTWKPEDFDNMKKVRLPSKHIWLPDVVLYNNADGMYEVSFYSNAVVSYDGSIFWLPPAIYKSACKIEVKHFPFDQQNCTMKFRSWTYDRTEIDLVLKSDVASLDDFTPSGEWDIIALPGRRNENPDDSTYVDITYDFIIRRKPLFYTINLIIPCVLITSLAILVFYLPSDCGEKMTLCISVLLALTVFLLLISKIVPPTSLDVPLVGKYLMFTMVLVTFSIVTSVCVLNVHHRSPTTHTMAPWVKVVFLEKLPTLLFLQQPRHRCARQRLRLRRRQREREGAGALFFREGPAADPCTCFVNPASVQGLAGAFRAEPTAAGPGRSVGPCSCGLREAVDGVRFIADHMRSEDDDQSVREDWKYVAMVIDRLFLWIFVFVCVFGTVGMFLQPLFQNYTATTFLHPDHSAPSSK", "T1 sequence (P12391 31-464)": "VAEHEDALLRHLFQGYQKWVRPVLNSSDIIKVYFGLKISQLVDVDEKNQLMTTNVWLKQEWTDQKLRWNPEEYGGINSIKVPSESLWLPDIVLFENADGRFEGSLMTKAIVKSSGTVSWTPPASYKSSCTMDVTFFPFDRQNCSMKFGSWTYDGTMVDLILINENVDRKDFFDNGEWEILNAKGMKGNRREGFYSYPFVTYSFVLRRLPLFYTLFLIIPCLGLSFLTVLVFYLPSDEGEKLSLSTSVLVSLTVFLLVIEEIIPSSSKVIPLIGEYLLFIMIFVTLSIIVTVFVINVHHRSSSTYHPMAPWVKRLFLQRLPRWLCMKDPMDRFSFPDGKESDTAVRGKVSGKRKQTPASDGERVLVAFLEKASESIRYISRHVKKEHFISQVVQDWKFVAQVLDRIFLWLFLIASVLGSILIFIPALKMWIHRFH", "assay": "Voltage clamp of Xenopus oocytes expressing α6/3 chimera with β2 and β3", "type": "cell-based", "method": "Mature (>9 cm) female Xenopus laevis African frogs (NASCO, Ft. Atkinson, Wis.) were used as a source of oocytes. Prior to surgery, frogs were anesthetized by placing the animal in a 1.5 g/l solution of MS222 (3-aminobenzoic acid ethyl ester) for 30 minutes. Oocytes were removed from an incision made in the abdomen.\nIn order to remove the follicular cell layer, harvested oocytes were treated with 1.25 mg/ml collagenase from Worthington Biochemical Corporation (Freehold, N.J.) for 2 hours at room temperature in calcium-free Barth's solution (88 mM NaCl, 10 mM HEPES pH 7.6, 0.33 mM MgSO4, 0.1 mg/ml gentamicin sulfate). Subsequently, stage 5 oocytes were isolated and injected with 50 nl (5-20 ng) each of the appropriate subunit cRNAs. Recordings were made 2 to 15 days after injection.\nRat neuronal nAChR clones and mouse muscle nAChR cDNA clones were used. The wild-type clones were obtained from Dr. Jim Boulter (UCLA). The rat α6/3 (Dowell et al. J Neurosci, 2003, 23:8445-8452) clone was obtained from Michael McIntosh (University of Utah) and expressed in Xenopus oocytes in combinations with rat β2 and β3. […] The TM2 domain is understood to line the pore of the channel, with alpha helix structure. The 7′ position may actually be directed away from the actual pore lining, but this residue is highly conserved in all of the nAChR. It is valine in all of them except α9 (isoleucine) and β1, where it is alanine. The TM2 mutation in the α6/3 chimera was corrected by using QuickChange (Stratagene) according to their protocols. The corrected α6/3 chimera sequence was confirmed by restriction diagnostics and by automated fluorescent sequencing (University of Florida core facility). The corrected clone was expressed as above in Xenopus oocytes with β2 and β3 and compared to the wild-type α3 co-expressed with β2 and β3.\nAfter linearization and purification of cloned cDNAs, RNA transcripts were prepared in vitro using the appropriate mMessage mMachine kit from Ambion Inc. (Austin, Tex.).\nElectrophysiology. The majority of experiments were conducted using OpusXpress 6000A (Axon Instruments, Union City Calif.). OpusXpress is an integrated system that provides automated impalement and voltage clamp of up to eight oocytes in parallel. Cells were automatically perfused with bath solution, and agonist solutions were delivered from a 96-well plate. Both the voltage and current electrodes were filled with 3 M KCl. The agonist solutions were applied via disposable tips, which eliminated any possibility of cross-contamination. Drug applications alternated between ACh controls and experimental applications. Flow rates were set at 2 ml/min for experiments with α7 receptors and 4 ml/min for other subtypes. Cells were voltage-clamped at a holding potential of −60 mV. Data were collected at 50 Hz and filtered at 20 Hz. Agonist applications were 12 seconds in duration followed by 181-second washout periods for α7 receptors and 8 seconds with 241-second wash periods for other subtypes. For some experiments, particularly under conditions where residual inhibition precluded making repeated measurements from single cells (see below), manual oocyte recordings were made as previously described (Papke and Papke Br J of Pharmacol, 2002, 137:49-61). In brief, Warner Instruments (Hamden, Conn.) OC-725C oocyte amplifiers were used, and data were acquired with a minidigi or digidata 1200A with pClamp9 software (Axon Instruments). Sampling rates were between 10 and 20 Hz and the data were filtered at 6 Hz. […]"}, "mice": {"tested_on": "mice", "assay": "Body temperature, nicotine-induced hypothermia", "type": "in vivo", "settings": "for Body temperature Δ° C. (Mean ± SEM): s.c.", "method": "Animals. Male ICR mice (20-25 g) obtained from Harlan Laboratories (Indianapolis, Ind.) were used throughout the study. Animals were housed in groups of six and had free access to food and water. Adult, male Long-Evans rats (350-460 g), obtained from Harlan (Dublin, Va.), were individually housed in a temperature-controlled (20-22° C.) environment with a 12-hour light-dark cycle (lights on at 7 a.m.). Rats were maintained within the indicated weight range by restricted post-session feeding and had ad libitum water in their home cages. Rats were drug-naive at the beginning of the study. Animals were housed in an AALAC approved facility and the study was approved by the Institutional Animal Care and Use Committee of Virginia Commonwealth University. Body temperature. Rectal temperature was determined by a thermistor probe (inserted 24 mm) and digital thermometer (Yellow Springs Instrument Co., Yellow Springs, Ohio). […] The difference in rectal temperature before and after treatment was calculated for each mouse. The ambient temperature of the laboratory varied from 21-24° C. from day to day. […] Psychopharmacology (Berl), 1995, 117:67-73). Eight to twelve mice were tested in each treatment group and each animal was tested only once. Statistical analysis. Statistical analysis of all analgesic and in vivo studies was performed using either t-test or analysis of variance (ANOVA) with Tukey's test post hoc test when appropriate."}}, "note": "Where two headings read alike, the source gives them in different places.", "data": [{"smiles": "CCCCCCC(=O)OC1CC(C)(C)NC(C)(C)C1", "note": "[TMPH, 2,2,6,6-tetramethylpiperidin-4-yl heptanoate]", "values": [{"measurement": "IC50", "setting": "Rat α6/3β2β3; decrease in net charge, 100 μM ACh co-applied with TMPH, read-out: IC50 (area)", "value": "1000 ± 300", "unit": "nM"}, {"measurement": "IC50", "setting": "Rat α6/3β2β3; decrease in peak current amplitude, 100 μM ACh co-applied with TMPH, read-out: IC50 (peak)", "value": "60000 ± 20000", "unit": "nM"}, {"measurement": "IC50", "setting": "Rat α6/3β2β3; inhibition still present after 5-minute wash, read-out: IC50 (recovery)", "value": "2300 ± 500", "unit": "nM"}, {"measurement": "IC50 net charge/IC50 peak", "setting": "Rat α6/3β2β3; ratio", "value": ".017"}, {"measurement": "IC50 recovery/IC50 net charge", "setting": "Rat α6/3β2β3; ratio", "value": 2.0}, {"measurement": "effect on nicotine-induced hypothermia", "setting": "mice; TMPH 20 mg/kg, nicotine 2.5 mg/kg", "value": "not blocked"}, {"measurement": "Body temperature Δ° C. (Mean ± SEM)", "setting": "mice; TMPH (20 mg/kg)/Nicotine (1.5 mg/kg)", "value": "−5.2 ± 0.4", "unit": "°C"}, {"measurement": "Body temperature Δ° C. (Mean ± SEM)", "setting": "mice; TMPH (20 mg/kg)/Saline", "value": "−1.0 ± 0.2", "unit": "°C"}, {"measurement": "blockade of nicotine-induced hypothermia", "setting": "mice; TMPH @ 20 mg/kg", "value": 0, "unit": "% blockade @ 20"}, {"measurement": "effect of TMPH by itself on body temperature", "setting": "mice; s.c. injection, at the indicated doses and times", "value": "did not have a significant effect"}]}]}
